# Data taken from EP0497314A1, “Use of azapirones in attention deficit hyperactivity disorder” (Bristol-Myers Squibb Company, priority 1991, dated 1992).
# Structures can show the parent of a compound that is named as a salt. Marks after values point to notes of the source that are not given here.
# Experiments:
# [1] = test system: fronto-occipital cortex of the cat; test: Quantitative EEG, fronto-occipital cat cortex, subcutaneous administration; format: in vivo, cats; conditions: for group percent change in electrical energy from pre-drug control, Δ band / mean change ± S.E. in electrical energy from pre-drug control, Δ band / group percent change in electrical energy from pre-drug control, α band / mean change ± S.E. in electrical energy from pre-drug control, α band / group percent change in electrical energy from pre-drug control, β band / mean change ± S.E. in electrical energy from pre-drug control, β band / group percent change in electrical energy from pre-drug control, γ band / mean change ± S.E. in electrical energy from pre-drug control, γ band / group percent change in electrical energy from pre-drug control, θ band / mean change ± S.E. in electrical energy from pre-drug control, θ band: fronto-occipital cat cortex; for group percent change in electrical energy from pre-drug control, Δ band / mean change ± S.E. in electrical energy from pre-drug control, Δ band: Δ = 0.5-3.5 Hz; for group percent change in electrical energy from pre-drug control, α band / mean change ± S.E. in electrical energy from pre-drug control, α band: α= 7-13 Hz; for group percent change in electrical energy from pre-drug control, β band / mean change ± S.E. in electrical energy from pre-drug control, β band: β= 13-25 Hz; for group percent change in electrical energy from pre-drug control, γ band / mean change ± S.E. in electrical energy from pre-drug control, γ band: γ= 25-40 Hz; for group percent change in electrical energy from pre-drug control, θ band / mean change ± S.E. in electrical energy from pre-drug control, θ band: θ= 3.5-7.0 Hz
# Procedure, shortened: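 Adult female mongrel cats (n=6 per group) with implanted electrodes were recorded while held in restraining bags, with EEG filtered into Δ, ϑ, α, β and γ bands and integrated as energy counts. Drugs were given subcutaneously in saline, with doses calculated as free base, and recording started 30 min post-injection. Changes from each animal's pre-treatment control were tested by paired Student t-test (P≦0.05).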
# rabbit cortex = test: Quantitative EEG, rabbit cortex, intravenous administration; format: in vivo, rabbits; conditions: for group percent change in electrical energy from pre-drug control, Δ band / mean change ± S.E. in electrical energy from pre-drug control, Δ band: Δ = 0.5-3.5 Hz; for group percent change in electrical energy from pre-drug control, α band / mean change ± S.E. in electrical energy from pre-drug control, α band: α= 7-13 Hz; for group percent change in electrical energy from pre-drug control, β band / mean change ± S.E. in electrical energy from pre-drug control, β band: β= 13-25 Hz; for group percent change in electrical energy from pre-drug control, γ band / mean change ± S.E. in electrical energy from pre-drug control, γ band: γ= 25-40 Hz; for group percent change in electrical energy from pre-drug control, θ band / mean change ± S.E. in electrical energy from pre-drug control, θ band: θ= 3.5-7.0 Hz
# Procedure, shortened: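 Restrained rabbits with cortical leads had EEG split into Δ, ϑ, α, β and γ bands and integrated over 1 h from the moment of i.v. injection, in saline, dosed as free base. Counts were compared with each animal's own pretreatment control by paired t-test (p≦0.05). Doses were reduced geometrically to a no-effect level.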
# [2] = rabbit cortex, 0.125 mg/kg free base i.v.
# [3] = rabbit cortex, 0.25 mg/kg free base i.v.
structure (smiles),measurement,setting,value
"CSc1ccc2c(c1)N(CCC1CCCCN1C)c1ccccc1S2 (centres unmarked) [Thioridazine HCl, thioridazine]",minimal effective dose,"[1]; Felis catus, sc, fronto-occipital cat cortex EEG, dose of free base, read-out: the minimum dose required to produce the EEG profile characteristic of that particular drug",1 mg/kg
same,the no-effect dose,"[1]; fronto-occipital cat cortex EEG, dose of free base","0.5† mg/kg, s.c."
same,"group percent change in electrical energy from pre-drug control, Δ band",[1]; 0.5 mg/kg free base s.c.,+5%
same,"mean change ± S.E. in electrical energy from pre-drug control, Δ band",[1]; 0.5 mg/kg free base s.c.,+11 ± 21 instrument counts
same,"group percent change in electrical energy from pre-drug control, Δ band",[1]; 1.0 mg/kg free base s.c.,+19%
same,"mean change ± S.E. in electrical energy from pre-drug control, Δ band",[1]; 1.0 mg/kg free base s.c.,+38 ± 11 instrument counts
same,"group percent change in electrical energy from pre-drug control, Δ band",[1]; 8.0 mg/kg free base s.c.,+28%
same,"mean change ± S.E. in electrical energy from pre-drug control, Δ band",[1]; 8.0 mg/kg free base s.c.,+54 ± 8 instrument counts
same,"group percent change in electrical energy from pre-drug control, α band",[1]; 0.5 mg/kg free base s.c.,0%
same,"mean change ± S.E. in electrical energy from pre-drug control, α band",[1]; 0.5 mg/kg free base s.c.,0 ± 7 instrument counts
same,"group percent change in electrical energy from pre-drug control, α band",[1]; 1.0 mg/kg free base s.c.,+18%
same,"mean change ± S.E. in electrical energy from pre-drug control, α band",[1]; 1.0 mg/kg free base s.c.,+20 ± 5 instrument counts
same,"group percent change in electrical energy from pre-drug control, α band",[1]; 8.0 mg/kg free base s.c.,+26%
same,"mean change ± S.E. in electrical energy from pre-drug control, α band",[1]; 8.0 mg/kg free base s.c.,+25 ± 6 instrument counts
same,"group percent change in electrical energy from pre-drug control, β band",[1]; 0.5 mg/kg free base s.c.,-3%
same,"mean change ± S.E. in electrical energy from pre-drug control, β band",[1]; 0.5 mg/kg free base s.c.,-3 ± 3 instrument counts
same,"group percent change in electrical energy from pre-drug control, β band",[1]; 1.0 mg/kg free base s.c.,+3%
same,"mean change ± S.E. in electrical energy from pre-drug control, β band",[1]; 1.0 mg/kg free base s.c.,+3 ± 4 instrument counts
same,"group percent change in electrical energy from pre-drug control, β band",[1]; 8.0 mg/kg free base s.c.,-2%
same,"mean change ± S.E. in electrical energy from pre-drug control, β band",[1]; 8.0 mg/kg free base s.c.,-3 ± 4 instrument counts
same,"group percent change in electrical energy from pre-drug control, γ band",[1]; 0.5 mg/kg free base s.c.,-5%
same,"mean change ± S.E. in electrical energy from pre-drug control, γ band",[1]; 0.5 mg/kg free base s.c.,-3 ± 3 instrument counts
same,"group percent change in electrical energy from pre-drug control, γ band",[1]; 1.0 mg/kg free base s.c.,-11%
same,"mean change ± S.E. in electrical energy from pre-drug control, γ band",[1]; 1.0 mg/kg free base s.c.,-9 ± 4 instrument counts
same,"group percent change in electrical energy from pre-drug control, γ band",[1]; 8.0 mg/kg free base s.c.,-15%
same,"mean change ± S.E. in electrical energy from pre-drug control, γ band",[1]; 8.0 mg/kg free base s.c.,-12 ± 3 instrument counts
same,"group percent change in electrical energy from pre-drug control, θ band",[1]; 0.5 mg/kg free base s.c.,-1%
same,"mean change ± S.E. in electrical energy from pre-drug control, θ band",[1]; 0.5 mg/kg free base s.c.,-2 ± 8 instrument counts
same,"group percent change in electrical energy from pre-drug control, θ band",[1]; 1.0 mg/kg free base s.c.,+24%
same,"mean change ± S.E. in electrical energy from pre-drug control, θ band",[1]; 1.0 mg/kg free base s.c.,+29 ± 5 instrument counts
same,"group percent change in electrical energy from pre-drug control, θ band",[1]; 8.0 mg/kg free base s.c.,+30%
same,"mean change ± S.E. in electrical energy from pre-drug control, θ band",[1]; 8.0 mg/kg free base s.c.,+40 ± 6 instrument counts
same,minimal effective dose,"rabbit cortex; Oryctolagus cuniculus, iv, rabbit cortex EEG, dose of free base, read-out: the minimum dose required to produce the EEG profile characteristic of that particular drug",0.25 mg/kg
same,relative potency by comparing minimal doses required to elicit EEG profiles,"rabbit cortex; rabbit cortex EEG, i.v.",approximately twice as potent as buspirone
same,the no-effect dose,"rabbit cortex; rabbit cortex EEG, dose of free base","0.125† mg/kg, i.v."
same,EEG profile,"rabbit cortex; rabbit cortex, i.v.",completely different from that produced by stimulant drugs
same,"group percent change in electrical energy from pre-drug control, Δ band",rabbit cortex; [2],+3%
same,"mean change ± S.E. in electrical energy from pre-drug control, Δ band",rabbit cortex; [2],+11 ± 23 instrument counts
same,"group percent change in electrical energy from pre-drug control, Δ band",rabbit cortex; [3],+69%
same,"mean change ± S.E. in electrical energy from pre-drug control, Δ band",rabbit cortex; [3],+143 ± 11 instrument counts
same,"group percent change in electrical energy from pre-drug control, α band",rabbit cortex; [2],0%
same,"mean change ± S.E. in electrical energy from pre-drug control, α band",rabbit cortex; [2],0 ± 6 instrument counts
same,"group percent change in electrical energy from pre-drug control, α band",rabbit cortex; [3],+34%
same,"mean change ± S.E. in electrical energy from pre-drug control, α band",rabbit cortex; [3],+54 ± 2 instrument counts
same,"group percent change in electrical energy from pre-drug control, β band",rabbit cortex; [2],+3%
same,"mean change ± S.E. in electrical energy from pre-drug control, β band",rabbit cortex; [2],+5 ± 4 instrument counts
same,"group percent change in electrical energy from pre-drug control, β band",rabbit cortex; [3],+35%
same,"mean change ± S.E. in electrical energy from pre-drug control, β band",rabbit cortex; [3],+39 ± 4 instrument counts
same,"group percent change in electrical energy from pre-drug control, γ band",rabbit cortex; [2],+1%
same,"mean change ± S.E. in electrical energy from pre-drug control, γ band",rabbit cortex; [2],+1 ± 1 instrument counts
same,"group percent change in electrical energy from pre-drug control, γ band",rabbit cortex; [3],+5%
same,"mean change ± S.E. in electrical energy from pre-drug control, γ band",rabbit cortex; [3],+5 ± 1 instrument counts
same,"group percent change in electrical energy from pre-drug control, θ band",rabbit cortex; [2],-5%
same,"mean change ± S.E. in electrical energy from pre-drug control, θ band",rabbit cortex; [2],-13 ± 8 instrument counts
same,"group percent change in electrical energy from pre-drug control, θ band",rabbit cortex; [3],+21%
same,"mean change ± S.E. in electrical energy from pre-drug control, θ band",rabbit cortex; [3],+43 ± 4 instrument counts
